From article PMC7397269, “Synthesis and Evaluation of New Coumarin Derivatives as Antioxidant, Antimicrobial, and Anti-Inflammatory Agents” (Molecules, 2020) come the findings set out here.

A short description of assay [1]: DPPH antioxidant assay (radical scavenging). The assay is classed as biochemical. The following applies: mean ± SD (n = 3). The gist of the method:
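Compounds, starting at 200 μg/mL, were mixed with 0.2 mM methanolic DPPH and incubated 30 min in the dark at 25 °C; absorbance was read at 515 nm. % inhibition is background-corrected against DPPH-only control, with IC50 from curve fit. Runs were triplicate (mean ± SD), with ascorbic acid as positive control.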
In general terms: Loss of DPPH colour is used to gauge radical scavenging.

Assay [2] concerns Staphylococcus aureus ATCC 29213. Briefly: Agar well diffusion, S. aureus. It counts as cell-based. The following applies: ATCC29213, 100 μL of 10 mg/mL in DMSO, read-out: diameter of inhibition zone, SA. The gist of the method:
(§1)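 Wells (10 mm) in nutrient agar (bacteria, 1 × 10^8 CFU/mL) or Sabouraud dextrose agar (yeast, 1 × 10^6 CFU/mL) loaded with 100 μL of 10 mg/mL compound in DMSO. Plates incubated 24 h at 37 °C. Inhibition zone diameter (mm), mean of triplicates.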
For orientation: A growth-free zone around the sample is the usual read-out of agar diffusion tests.

Assay [3] relates to Bacillus megaterium ATCC 9885. Briefly: Agar well diffusion, B. megaterium. The assay is classed as cell-based. The following applies: Priestia megaterium, ATCC9885, 100 μL of 10 mg/mL in DMSO, read-out: diameter of inhibition zone, BM. The gist of the method:
as §1

In assay [4] the test system is Pseudomonas aeruginosa ATCC 27,953. Briefly: Agar well diffusion, P. aeruginosa. The assay is classed as cell-based. The following applies: ATCC27, 100 μL of 10 mg/mL in DMSO, read-out: diameter of inhibition zone, PA. The gist of the method: as §1
For assay [5], the system named is Candida albicans NRRL Y-477. Briefly: Agar well diffusion, C. albicans. It counts as cell-based. As to conditions: NRRLY477, 100 μL of 10 mg/mL in DMSO, read-out: diameter of inhibition zone, CA. The gist of the method: as §1
The test system of assay [6] is Staphylococcus aureus ATCC 29213. In words: MIC, two-fold serial dilution, S. aureus. It counts as cell-based. The following applies: ATCC29213, read-out: Minimum inhibitory concentration, SA. The gist of the method: (§2)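 Broth tube dilution, two-fold, final 1000–125 μg/mL; inoculum 1 × 10^8 CFU/mL bacteria, 1 × 10^6 CFU/mL yeast (0.1 mL/5 mL); 37 °C, 24 h; MIC read as lowest conc. with no visible growth. Only agar-diffusion actives (IZ > 16 mm) tested.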

Assay [7] has as its system Bacillus subtilis ATCC 6633. In words: MIC, two-fold serial dilution, B. subtilis. As to conditions: ATCC6633, read-out: Minimum inhibitory concentration, BS. The assay is classed as cell-based. The gist of the method:
as §2

The subject of assay [8] is Bacillus megaterium ATCC 9885. In words: MIC, two-fold serial dilution, B. megaterium. The assay is classed as cell-based. As to conditions: Priestia megaterium, ATCC9885, read-out: Minimum inhibitory concentration, BM. The gist of the method:
as §2

Assay [9] has as its system Escherichia coli ATCC 2592. In words: MIC, two-fold serial dilution, E. coli. It counts as cell-based. As to conditions: ATCC2592, read-out: Minimum inhibitory concentration, EC. The gist of the method: as §2
Assay [10] relates to Saccharomyces cerevisiae local isolate. Briefly: MIC, two-fold serial dilution, S. cerevisiae. The assay is classed as cell-based. The following applies: read-out: Minimum inhibitory concentration, SC. The gist of the method: as §2
Another assay concerns the target T1, COX-2 (Homo sapiens, UniProt P35354).
T1 construct: purchased Cayman Chemical 701080
T1 sequence (P35354 18-604): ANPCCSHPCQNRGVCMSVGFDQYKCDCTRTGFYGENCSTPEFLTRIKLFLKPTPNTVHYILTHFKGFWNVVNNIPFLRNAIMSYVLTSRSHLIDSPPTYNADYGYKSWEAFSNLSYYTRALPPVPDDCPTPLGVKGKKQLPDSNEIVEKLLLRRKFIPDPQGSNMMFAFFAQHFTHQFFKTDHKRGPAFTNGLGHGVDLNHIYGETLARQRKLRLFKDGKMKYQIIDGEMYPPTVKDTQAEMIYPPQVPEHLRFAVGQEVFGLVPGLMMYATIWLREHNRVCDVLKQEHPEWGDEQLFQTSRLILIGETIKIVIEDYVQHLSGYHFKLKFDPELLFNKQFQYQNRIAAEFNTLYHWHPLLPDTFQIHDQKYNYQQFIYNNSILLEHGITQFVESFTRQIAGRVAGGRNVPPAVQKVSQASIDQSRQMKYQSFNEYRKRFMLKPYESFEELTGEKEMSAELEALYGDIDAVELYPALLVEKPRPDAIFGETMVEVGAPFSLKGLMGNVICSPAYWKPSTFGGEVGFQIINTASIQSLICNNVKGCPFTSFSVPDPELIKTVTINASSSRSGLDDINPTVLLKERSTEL
In words: COX-2 inhibition, Cayman assay kit. It counts as biochemical. The following applies: for IC50: mean of two determinations; for SI, selectivity index (COX-1/COX-2): ratio of COX-1/COX-2 IC50.

Where [11] appears, read: two-fold serial dilution, S. cerevisiae.

Values after ≈ are worked out from the molar mass of the structure shown. Values joined by “and” are separate entries in the source; they are usually repeats but may differ in a detail not shown here. Identical values can stand only once. Like-named read-outs stand apart in the source and are kept apart here.

Turning to `Cc1ccc2oc(=O)c(S(=O)(=O)Nc3ccc(S(=O)(=O)Nc4nccs4)cc3)c(O)c2c1` [7f, 4-Hydroxy-6-methyl-2-oxo-N-(4-(N-(thiazol-2-yl)sulfamoyl)phenyl)-2H-chromene-3-sulfonamide], the half-inhibitory concentration (IC50) in assay [1] is 83.52 ± 1.849 µg/mL (≈ 169 µM); at COX-2, 10.1 µM. For the same molecule, the zone of inhibition at 10000 µg/mL in [2] was found to be 24 mm; in [3], 27 mm; in [4], 24 mm; in [5], 24 mm. Moreover, the MIC in [6] was found to be 250 µg/mL (≈ 507 µM); in assay [7], 250 µg/mL (≈ 507 µM); in [8], 250 µg/mL (≈ 507 µM); in assay [9], 500 µg/mL (≈ 1010 µM); in assay [10] (setting [11]), 250 µg/mL (≈ 507 µM). For the same molecule, the “SI, selectivity index (COX-1/COX-2)” value on COX-2 is reported as 4.06.

In the case of `Cc1ccc2oc(=O)c(S(=O)(=O)Nc3ccc(O)cc3)c(O)c2c1` [8d, 4-Hydroxy-N-(4-hydroxyphenyl)-6-methyl-2-oxo-2H-chromene-3-sulfonamide], the IC50 in [1] stood at 4.30 ± 0.531 µg/mL (≈ 12.4 µM); against COX-2 it was 1.86 µM. Further, the zone of inhibition at 10000 µg/mL in assay [2] was found to be 30 mm; in assay [3], 29 mm; in assay [4], 31 mm; in assay [5] it was 30 mm. For the same molecule, the MIC was 125 µg/mL (≈ 360 µM) in [6]; 125 µg/mL (≈ 360 µM) in [7]; 250 µg/mL (≈ 720 µM) in [8]; 125 µg/mL (≈ 360 µM) in [9]; 125 µg/mL (≈ 360 µM) in [10] (setting [11]). Moreover, the “SI, selectivity index (COX-1/COX-2)” value at COX-2 is 10.5 and 10.45.

Take `O=c1oc2ccc(Cl)cc2c(O)c1S(=O)(=O)Nc1ccc(S(=O)(=O)Nc2nccs2)cc1` [7e, 6-Chloro-4-hydroxy-2-oxo-N-(4-(N-(thiazol-2-yl)sulfamoyl)phenyl)-2H-chromene-3-sulfonamide]: the IC50 was 71.67 ± 3.231 µg/mL (≈ 139 µM) in [1] and 16.1 µM at COX-2. Also, the zone of inhibition at 10000 µg/mL in [2] was determined as 23 mm; in assay [3], 25 mm; in assay [4], 22 mm; in assay [5], 23 mm. For the same molecule, the MIC in assay [6] was found to be 500 µg/mL (≈ 973 µM); in assay [7], 500 µg/mL (≈ 973 µM); in assay [8] it was 500 µg/mL (≈ 973 µM); in assay [9], 500 µg/mL (≈ 973 µM); in assay [10] (setting [11]) it was 1000 µg/mL (≈ 1950 µM). On COX-2, the “SI, selectivity index (COX-1/COX-2)” value turned out to be 1.84.

Take `Cc1ccc2oc(=O)c3c(c2c1)OC(N)=C(C#N)C3c1ccco1` (racemic) [2b, (±)-2-Amino-4-(furan-2-yl)-9-methyl-5-oxo-4H,5H-pyrano[3,2-c]chromene-3-carbonitrile]: the half-maximal inhibitory concentration (IC50) entry in assay [1] was “— ((—): inactive (IC50 > 200 μg/mL))”; against COX-2 it was 4.25 µM. Also, the zone of inhibition at 10000 µg/mL was found to be 25 mm in assay [2], 25 mm in assay [3], 21 mm in assay [4] and 23 mm in assay [5]. Also, the MIC in assay [6] is 500 µg/mL (≈ 1560 µM); in [7] it was 500 µg/mL (≈ 1560 µM); in assay [8], 500 µg/mL (≈ 1560 µM); in [9], 1000 µg/mL (≈ 3120 µM); in assay [10], 500 µg/mL (≈ 1560 µM). Also, on COX-2, the “SI, selectivity index (COX-1/COX-2)” value was 47.3 and 47.33.

Consider `Cc1ccc2oc(=O)c3c(c2c1)OC(/N=C/c1ccc(Cl)cc1Cl)=C(C#N)C3c1ccco1` (racemic) [5f, (±)-2-((2,4-dichlorobenzylidene)amino)-4-(furan-2-yl)-9-methyl-5-oxo-4H,5H-pyrano[3,2-c]chromene-3-carbonitrile], for which the half-maximal inhibitory concentration (IC50) entry in assay [1] is “— ((—): inactive (IC50 > 200 μg/mL))”; against COX-2, 3.1 µM. For the same molecule, the zone of inhibition at 10000 µg/mL in assay [2] is 25 mm; in assay [3], 20 mm; in assay [4] it was 21 mm; in [5], 22 mm. The MIC in assay [6] was found to be 500 µg/mL (≈ 1050 µM); in assay [7], 500 µg/mL (≈ 1050 µM); in [8], 1000 µg/mL (≈ 2100 µM); in [9], 1000 µg/mL (≈ 2100 µM); in [10], 500 µg/mL (≈ 1050 µM). Further, the “SI, selectivity index (COX-1/COX-2)” value on COX-2 came to 29.1.

What is called IC50 is the concentration that gives 50% inhibition. Low values mean greater potency, high ones weaker potency. The term zone of inhibition denotes the extent of the growth-free halo in a diffusion test.
